The subject of test [1] is IL-17 production from human Th17 cells. The experiment in a line: Assay of IL-17 production from human Th17 cells. The test is classed as cell-based. Particulars: 144 h; IL-17A in supernatant by ELISA (MSD) after 6 days, human CD4+ T cells differentiated into Th17; read-out: IC50. Here is the method: The activity of compound of the invention can be also be determined by an IL-17 production from human Th17 cells assay. In general, this assay measures blockade of IL-17 production, the signature cytokine of T helper 17 (Th17) cells, by compounds. Purified human CD4+ T cells are stimulated with anti-CD3+anti-CD28 and incubated with a cytokine cocktail that induce their differentiation into Th17 in the absence or presence of various concentrations of compound. After 6 days, IL-17A concentration is measured in the cell culture supernatant with an ELISA kit (MSD).
Preparation of human CD4+ T cells. CD4+ T cells were purified from buffy coats from healthy donors (obtained from Massachusetts General Hospital) by negative selection the following procedure: Mixing 25 mL of blood with 1 mL of Rosette Sep CD4+ T cell enrichment cocktail (StemCell Technologies) followed by application of a layer of 14 mL Ficoll Paque Plus (Amersham GE Healthcare) and subsequent centrifugation at 1200 g for 20 min at room temperature. The Ficoll layer was then harvested and washed with phosphate saline buffer containing 2% (v/v) fetal bovine serum and cells were resuspended with RPMI medium containing 10% (v/v) fetal bovine serum and 10% (v/v) DMSO, frozen and kept in LN2 until used.
[…] Serial dilutions of compounds of the invention are prepared at 10× final concentration in X-Vivo15 medium containing 3% (v/v) DMSO.
On the second day of the assay, a 384-well tissue culture plate was coated with 10 μg/mL anti-hCD3 (eBioscience) at 50 μL/well. After 2 hr at 37° C., the supernatant is discarded and the coated plates are kept in a sterile tissue culture hood.
The cytokine plus anti-CD28 cocktail with CD4+ cells is prepared such that the cocktail is diluted 10-fold and cell density is 0.22×10^6/mL. The mixture is incubated 1 hr at 37° C.
90 μL (20,000 cells) dispensed per well in the anti-hCD3 coated plate prepared as noted above.
10 μL 10× compound is added per well (final DMSO=0.3%) from the compound plate that was previously prepared, followed by 6 days of incubation in a tissue culture vessel in a humidified chamber at 37° C. and 5% CO2.
Measurement is carried out in a Sector Imager 6000 by the same manufacturer. Signal units from the instrument are converted to pg/mL using a calibration curve with known amounts of IL-17A. IC50 values of test compounds (Table 2) are determined by the non-linear regression analysis of dose response curves.

Test [2] addresses RORC2 ligand binding domain (6-His-RORC2 LBD) (Homo sapiens (Human), UniProt P51449). Description: Assay of co-activator recruitment by TR-FRET. The test is classed as biochemical. To be noted: 6-His-RORC2 LBD / biotin-coactivator peptide SRC1-2 interaction, 3 hr room temperature. Here is the method: The activity of compound of the invention can be determined by a co-activator recruitment by TR-FRET (time-resolved fluorescence resonance energy transfer) assay. […] When receptor and coactivator are bound to each other, upon shining light at 337 nm on the sample, the Europium emits fluorescence that excites APC due to close proximity (FRET) and this signal is measured at 665 nm. Due to the long lasting fluorescence emission of Europium, the non-specific, short-lived fluorescence is time-resolved (TR) from the fluorescence of interest. Inhibitors of the interaction of receptor and coactivator peptide are detected by a decrease in TR-FRET signal.
Specifically, in one embodiment the aforementioned assay was performed as outlined below. The assay was carried out in black polystyrene, 384-well plates in a total assay volume of 50.5 μL. The assay buffer contained 50 mM TRIS-HCL pH 7.5, 1 mM NaCl, 2 mM MgCl2, 0.5 mg/mL bovine serum albumin, and 5 mM dithiothreitol.

Chain of RORC2 ligand binding domain (6-His-RORC2 LBD) (P51449 269-508): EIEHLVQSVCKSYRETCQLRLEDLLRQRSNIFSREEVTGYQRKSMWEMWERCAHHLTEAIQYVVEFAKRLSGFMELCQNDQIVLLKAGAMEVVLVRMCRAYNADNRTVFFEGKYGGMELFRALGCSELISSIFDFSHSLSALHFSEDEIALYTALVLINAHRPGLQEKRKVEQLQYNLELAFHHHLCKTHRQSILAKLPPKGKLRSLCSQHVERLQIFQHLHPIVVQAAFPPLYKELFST

Take `CC(CC(=O)N1CCC(c2cn(C)c3ccc(NS(=O)(=O)c4ccc(F)cc4)cc23)CC1)C(F)(F)F` (stereo not shown) [Example 9, 4-fluoro-N-(1-methyl-3-(1-(4,4,4-trifluoro-3-methylbutanoyl)piperidin-4-yl)-1H-indol-5-yl)benzenesulfonamide]: the values for the half-maximal inhibitory concentration (IC50) in test [1] and in test [2] were 99.1 nM and 14.8 nM, respectively.

With `Cn1cc(C2CCN(C(=O)C3CCC3)CC2)c2cc(NS(=O)(=O)c3ccc(F)cc3)ccc21` [Example 11, N-(3-(1-(cyclobutanecarbonyl)piperidin-4-yl)-1-methyl-1H-indol-5-yl)-4-fluorobenzenesulfonamide], the IC50 in test [1] was found to be 148 nM; in test [2], 28.8 nM.

For `CC(C)CC(=O)N1CCC(c2cn(C)c3ccc(NS(=O)(=O)c4ccc(F)cc4)cc23)CC1` [Example 12, 4-Fluoro-N-(1-methyl-3-(1-(3-methylbutanoyl)piperidin-4-yl)-1H-indol-5-yl)benzenesulfonamide], the IC50 in test [1] came out at 127 nM; in test [2] it was 7.8 nM.

As for `Cn1cc(C2CCN(C(=O)CC3CC3)CC2)c2cc(NS(=O)(=O)c3ccc(F)cc3)ccc21` [Example 13, N-(3-(1-(2-Cyclopropylacetyl)piperidin-4-yl)-1-methyl-1H-indol-5-yl)-4-fluorobenzenesulfonamide], the IC50 in test [1] is 310 nM; in test [2], 16.9 nM.

On to `Cc1cccc(F)c1C(=O)N1CCC(c2cn(C)c3ccc(NS(=O)(=O)c4ccc(F)cc4)cc23)CC1` [Example 15, 4-fluoro-N-(3-(1-(2-fluoro-6-methylbenzoyl)piperidin-4-yl)-1-methyl-1H-indol-5-yl)benzenesulfonamide], for which the IC50 came to 189 nM in test [1] and 6.8 nM in test [2].

For the compound `CC(C)[C@H](C)C(=O)N1CCC(c2cn(C)c3ccc(NS(=O)(=O)c4ccc(F)cc4)cc23)CC1` [Example 16, (S)-N-(3-(1-(2,3-dimethylbutanoyl)pipendin-4-yl)-1-methyl-1H-indol-5-yl)-4-fluorobenzenesulfonamide], the IC50 was determined as 53.8 nM in test [1] and 3.1 nM in test [2].

On to `Cn1cc(C2CCN(C(=O)C3CCCC3)CC2)c2cc(NS(=O)(=O)c3ccccc3F)ccc21` [Example 17, N-(3-(1-(cyclopentanecarbonyl)piperidin-4-yl)-1-methyl-1H-indol-5-yl)-2-fluorobenzenesulfonamide], for which the IC50 amounted to 114 nM in test [1] and 5.9 nM in test [2].

Turning to `COc1cc(S(=O)(=O)Nc2ccc3c(c2)c(C2CCN(C(=O)C(C)C)CC2)cn3C)ccc1F` [Example 22, 4-fluoro-N-(3-(1-isobutyrylpiperidin-4-yl)-1-methyl-1H-indol-5-yl)-3-methoxybenzenesulfonamide], the concentration for half-maximal inhibition (IC50) was 267 nM in test [1] and 10.6 nM in test [2].

Take `Cc1nn(C)c(C)c1S(=O)(=O)Nc1ccc2c(c1)c(C1CCN(C(=O)[C@H](C)C(C)(C)C)CC1)cn2C` [Example 26, (R)-1,3,5-trimethyl-N-(1-methyl-3-(1-(2,3,3-trimethylbutanoyl)piperidin-4-yl)-1H-indol-5-yl)-1H-pyrazole-4-sulfonamide]: the IC50 in test [1] was found to be 5.1 nM; in test [2] it was 1.3 nM.

As to `Cc1noc(C)c1S(=O)(=O)Nc1ccc2c(c1)c(C1CCN(C(=O)[C@H](C)C(C)(C)C)CC1)cn2C` [Example 30, (R)-3,5-dimethyl-N-(1-methyl-3-(1-(2,3,3-trimethylbutanoyl)piperidin-4-yl)-1H-indol-5-yl)isoxazole-4-sulfonamide], the values for the IC50 in test [1] and in test [2] were 19.8 nM and 10 nM, respectively.

With `C[C@@H](C(=O)N1CCC(c2cn(C)c3ccc(NS(=O)(=O)c4ccc(F)cc4)cc23)CC1)C12CC(C1)C2` [Example 31, (R)-N-(3-(1-(2-(bicyclo[1.1.1]pentan-1-yl)propanoyl)piperidin-4-yl)-1-methyl-1H-indol-5-yl)-4-fluorobenzenesulfonamide], the IC50 in test [1] worked out at 26 nM; in test [2] it was 2.4 nM.

(Values after patent publication US10385036B2, “Sulfonamide-substituted indole modulators of RORC2 and methods of use thereof” (Pfizer Inc., priority 2015, dated 2019).)
